For assay [1], the system named is HER2 protein in SKBR3 cells. Kind of assay: Western blot of p-HER2 and t-HER2, SKBR3. The format is cell-based, human. The conditions noted are these: SKBR3, 10 µM, 72 h. The method, then:
(§1) SKBR3 and BT-474 were plated in RPMI-1640 media, washed, and incubated for 72 h. They were lysed in cold lysis buffer, frozen, collected, sonicated, and centrifuged for 10 min under cooling. The stacking and resolving solutions for polyacrylamide gels were prepared using various solutions, including 30% acrylamide, 0.5 M Tris, 10% SDS, 10% Ammonium persulfate, and 0.005 mL TEMED in 3.4 mL water and 3.3 mL water respectively. The ReadyPrepTM protein extraction kit was used to extract total protein from samples. Protein concentration was determined using the Bradford Protein Assay Kit. Samples were mixed with Laemmli sample buffer, pH adjusted and boiled for five minutes at 95 °C before loading onto SDS-polyacrylamide gels. Proteins in each sample were mixed, boiled, and loaded onto SDS-polyacrylamide gels. They were separated using the SDS-PAGE method, using the TGX Stain-Free™ FastCast™ Acrylamide Kit and a Cleaver electrophoresis unit. Proteins were transferred from gels to PVDF membranes using transfer sandwiches. Filter paper, membrane, gel, and filter paper were stacked in a sandwich. Gels were blotted onto PVDF membranes via electrophoresis using a Bio-Rad Semi-dry Electroblotter for 30 min. […] The intensity of each band was quantitated using ImageLab.

Assay [2] concerns HER2 protein in BT-474 cells. Kind of assay: Western blot of p-HER2 and t-HER2, BT-474. Type of assay: cell-based, human. The conditions noted are these: BT-474, 5 µM, 72 h. As for the experimental part: as §1
(In general: In western blotting, separated proteins are transferred to a membrane and probed.)

For assay [3], the system named is BT-474 cells. Kind of assay: MTT proliferation assay, BT-474. The format is cell-based, human. The conditions noted are these: Homo sapiens. Background: Tetrazolium assays rely on reduction of a dye to a coloured formazan, in cell work by metabolically active cells.
Assay [4] has as its target PDGFRB (PDGFR beta) (Homo sapiens, UniProt P09619). Kind of assay: SelectScreen Z'-LYTE kinase profiling. The format is biochemical. As for the experimental part: (§2) Liquiritin was screened at 0.1 µM dose against a panel of 15 human kinases using SelectScreen® kinase profiling services offered by ThermoFisher Scientific™ (Madison, WI, USA). The percent inhibition of Liquiritin was assessed against each kinase in an automated high-throughput screening system using the time-resolved fluorescence resonance energy transfer Z´-LYTE™ kinase assay. Technology overview, protocols, and assay conditions are accessible at https://x.gd/UgBBB.

For assay [5], the target named is MET (cMet) (Homo sapiens, UniProt P08581). Kind of assay: SelectScreen Z'-LYTE kinase profiling. Type of assay: biochemical. The method, then: as §2
For assay [6], the target named is KIT (Homo sapiens, UniProt P10721). The experiment in a line: SelectScreen Z'-LYTE kinase profiling. The format is biochemical. As for the experimental part: as §2
For assay [7], the target named is MST1R (RON) (Homo sapiens, UniProt Q04912). The experiment in a line: SelectScreen Z'-LYTE kinase profiling. Type of assay: biochemical. The method, then: as §2
Assay [8] addresses TYRO3 (RSE) (Homo sapiens, UniProt Q06418). Kind of assay: SelectScreen Z'-LYTE kinase profiling. Type of assay: biochemical. The method, then: as §2
Assay [9] deals with ALK (Homo sapiens, UniProt Q9UM73). Kind of assay: SelectScreen Z'-LYTE kinase profiling. The format is biochemical. The method, then: as §2
The test system of assay [10] is BT-474 cells. Kind of assay: Annexin V-FITC/PI apoptosis detection, BT-474. The note with it: BT-474, 3.5 µM, 48 h. The format is cell-based, human. The method, then:
To evaluate the induction of apoptosis, the translocation of phosphatidylserine to the outer cell membrane, as a hallmark of early apoptosis, was detected by the binding of annexin V, using the Annexin V-FITC Early Apoptosis Detection Kit (BD BioVision). Cells were seeded at a density of 5 × 10^5 cells per 100 mm culture plate and allowed to adhere overnight. […] At the end of the treatment period, cells were harvested by trypsinization, washed twice with ice-cold PBS, and resuspended in 500 µL of chilled 1X Annexin V Binding Buffer. To each sample, 5 µL of Annexin V-FITC conjugate and 5 µL of propidium iodide (PI, 50 µg/mL) were added. The cell suspensions were incubated for 5 minutes on ice in the dark to allow for staining.
Flow cytometric analysis was performed using excitation at 488 nm and emission at 530 nm for FITC detection (FL1 channel) and phycoerythrin emission settings for PI detection (FL2 channel). Data acquisition and analysis were facilitated by Cell Quest software (BD Biosciences), with dot plots divided into four quadrants to distinguish different cell populations: lower left (LL) for viable, non-apoptotic cells (negative for both annexin V and PI); lower right (LR) for early apoptotic cells (annexin V-positive, PI-negative); upper left (UL) for dead or necrotic cells (PI-positive, annexin V-negative); and upper right (UR) for late apoptotic cells (double-positive). All assays were conducted in triplicate to ensure reliability and reproducibility.

For assay [11], the system named is MCF10A cells. The experiment in a line: MTT cytotoxicity assay, non-tumorigenic MCF10A. Type of assay: cell-based, human.

Results on 1 compound are retold here after PMC12267471, “Discovery of natural scaffolds as HER2 inhibitors for breast cancer: virtual screening, molecular dynamics, and biological characterization with selectivity profiling” (Scientific Reports, 2025).

One may read the IC50 as the concentration that inhibits the measured activity by half. One may read the inhibition as the change of the read-out against control, counted positive when it falls. Lower therefore signals a weak effect.

Where two headings read alike, the source gives them in different places.

MET (cMet), sequence (P08581 25-1390): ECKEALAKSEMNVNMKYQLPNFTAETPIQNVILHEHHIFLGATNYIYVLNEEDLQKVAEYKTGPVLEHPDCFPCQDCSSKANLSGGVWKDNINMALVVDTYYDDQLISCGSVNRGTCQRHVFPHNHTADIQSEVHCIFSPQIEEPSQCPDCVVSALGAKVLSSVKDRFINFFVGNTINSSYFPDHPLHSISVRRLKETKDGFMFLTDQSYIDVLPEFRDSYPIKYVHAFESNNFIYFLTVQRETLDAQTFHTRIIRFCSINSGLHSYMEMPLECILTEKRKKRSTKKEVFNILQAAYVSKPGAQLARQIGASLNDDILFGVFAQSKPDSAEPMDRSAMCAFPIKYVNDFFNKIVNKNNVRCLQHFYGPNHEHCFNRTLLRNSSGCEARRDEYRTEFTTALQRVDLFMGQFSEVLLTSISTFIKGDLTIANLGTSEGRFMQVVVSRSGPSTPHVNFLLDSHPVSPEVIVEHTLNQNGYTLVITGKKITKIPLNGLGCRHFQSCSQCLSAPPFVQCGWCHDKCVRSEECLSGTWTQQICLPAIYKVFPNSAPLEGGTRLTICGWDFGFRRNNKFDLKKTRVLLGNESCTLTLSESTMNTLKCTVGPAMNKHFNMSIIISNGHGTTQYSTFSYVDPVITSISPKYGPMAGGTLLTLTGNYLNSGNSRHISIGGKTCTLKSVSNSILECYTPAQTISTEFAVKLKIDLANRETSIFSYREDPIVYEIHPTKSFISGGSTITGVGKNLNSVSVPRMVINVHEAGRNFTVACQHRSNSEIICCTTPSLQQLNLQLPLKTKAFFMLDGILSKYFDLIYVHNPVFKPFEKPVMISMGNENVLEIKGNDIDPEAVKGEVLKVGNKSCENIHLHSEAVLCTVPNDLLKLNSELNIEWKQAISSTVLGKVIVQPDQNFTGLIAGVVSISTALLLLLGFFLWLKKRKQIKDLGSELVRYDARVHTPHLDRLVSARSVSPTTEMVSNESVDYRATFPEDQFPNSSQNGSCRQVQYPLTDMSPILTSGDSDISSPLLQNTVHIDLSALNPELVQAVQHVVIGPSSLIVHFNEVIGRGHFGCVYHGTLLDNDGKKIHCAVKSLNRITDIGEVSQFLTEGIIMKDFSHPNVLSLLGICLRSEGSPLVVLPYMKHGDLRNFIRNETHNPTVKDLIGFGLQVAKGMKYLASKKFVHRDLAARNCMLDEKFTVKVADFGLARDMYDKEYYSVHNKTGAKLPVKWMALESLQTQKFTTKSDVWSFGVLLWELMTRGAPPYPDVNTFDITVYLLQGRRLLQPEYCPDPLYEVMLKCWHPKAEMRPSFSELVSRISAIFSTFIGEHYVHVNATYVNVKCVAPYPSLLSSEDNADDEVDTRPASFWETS
TYRO3 (RSE), sequence (Q06418 41-890): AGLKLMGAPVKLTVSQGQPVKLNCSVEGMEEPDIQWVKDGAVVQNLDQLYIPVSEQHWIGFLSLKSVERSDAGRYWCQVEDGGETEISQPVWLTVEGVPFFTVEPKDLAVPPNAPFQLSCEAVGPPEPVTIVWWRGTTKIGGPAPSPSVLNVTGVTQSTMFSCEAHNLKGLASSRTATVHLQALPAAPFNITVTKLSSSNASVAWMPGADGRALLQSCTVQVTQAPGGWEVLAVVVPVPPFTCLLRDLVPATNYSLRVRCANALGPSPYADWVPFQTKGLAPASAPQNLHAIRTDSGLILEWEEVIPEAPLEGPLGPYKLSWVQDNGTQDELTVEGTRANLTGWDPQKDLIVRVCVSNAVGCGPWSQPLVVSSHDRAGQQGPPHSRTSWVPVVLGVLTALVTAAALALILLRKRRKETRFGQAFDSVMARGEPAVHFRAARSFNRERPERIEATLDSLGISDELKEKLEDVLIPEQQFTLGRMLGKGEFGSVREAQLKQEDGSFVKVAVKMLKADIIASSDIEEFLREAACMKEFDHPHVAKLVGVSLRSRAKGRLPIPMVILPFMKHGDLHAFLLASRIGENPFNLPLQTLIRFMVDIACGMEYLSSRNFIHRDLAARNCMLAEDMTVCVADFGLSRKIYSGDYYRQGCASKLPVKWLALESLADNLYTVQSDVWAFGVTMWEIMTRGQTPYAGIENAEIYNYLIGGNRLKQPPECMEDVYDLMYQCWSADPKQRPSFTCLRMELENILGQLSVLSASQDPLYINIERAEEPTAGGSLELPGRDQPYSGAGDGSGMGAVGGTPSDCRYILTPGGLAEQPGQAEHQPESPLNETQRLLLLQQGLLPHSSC
KIT, sequence (P10721 26-976): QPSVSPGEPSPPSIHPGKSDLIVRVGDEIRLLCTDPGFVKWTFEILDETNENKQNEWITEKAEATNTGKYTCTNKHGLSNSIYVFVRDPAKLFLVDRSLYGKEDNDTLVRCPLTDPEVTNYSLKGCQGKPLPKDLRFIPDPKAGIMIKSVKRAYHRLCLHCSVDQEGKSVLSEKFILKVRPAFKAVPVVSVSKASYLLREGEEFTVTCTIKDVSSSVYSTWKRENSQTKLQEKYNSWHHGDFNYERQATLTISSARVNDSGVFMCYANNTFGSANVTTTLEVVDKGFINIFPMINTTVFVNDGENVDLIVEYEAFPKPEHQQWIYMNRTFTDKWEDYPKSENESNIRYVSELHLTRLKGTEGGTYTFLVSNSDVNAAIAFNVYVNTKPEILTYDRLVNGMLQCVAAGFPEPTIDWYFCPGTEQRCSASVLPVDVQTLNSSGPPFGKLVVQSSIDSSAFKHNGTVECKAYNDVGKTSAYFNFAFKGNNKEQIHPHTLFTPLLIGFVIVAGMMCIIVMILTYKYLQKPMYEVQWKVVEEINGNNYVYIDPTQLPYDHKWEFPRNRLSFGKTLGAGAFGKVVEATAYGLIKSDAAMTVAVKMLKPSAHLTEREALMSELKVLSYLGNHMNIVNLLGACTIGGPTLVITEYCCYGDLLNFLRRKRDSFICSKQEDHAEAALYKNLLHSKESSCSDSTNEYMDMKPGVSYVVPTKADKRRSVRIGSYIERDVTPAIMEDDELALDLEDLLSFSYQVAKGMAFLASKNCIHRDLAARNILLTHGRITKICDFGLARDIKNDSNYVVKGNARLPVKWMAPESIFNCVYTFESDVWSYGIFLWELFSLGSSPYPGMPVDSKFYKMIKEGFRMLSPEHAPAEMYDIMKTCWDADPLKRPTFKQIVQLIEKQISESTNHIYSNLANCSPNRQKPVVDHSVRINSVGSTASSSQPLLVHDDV
MST1R (RON), sequence (Q04912 25-1400): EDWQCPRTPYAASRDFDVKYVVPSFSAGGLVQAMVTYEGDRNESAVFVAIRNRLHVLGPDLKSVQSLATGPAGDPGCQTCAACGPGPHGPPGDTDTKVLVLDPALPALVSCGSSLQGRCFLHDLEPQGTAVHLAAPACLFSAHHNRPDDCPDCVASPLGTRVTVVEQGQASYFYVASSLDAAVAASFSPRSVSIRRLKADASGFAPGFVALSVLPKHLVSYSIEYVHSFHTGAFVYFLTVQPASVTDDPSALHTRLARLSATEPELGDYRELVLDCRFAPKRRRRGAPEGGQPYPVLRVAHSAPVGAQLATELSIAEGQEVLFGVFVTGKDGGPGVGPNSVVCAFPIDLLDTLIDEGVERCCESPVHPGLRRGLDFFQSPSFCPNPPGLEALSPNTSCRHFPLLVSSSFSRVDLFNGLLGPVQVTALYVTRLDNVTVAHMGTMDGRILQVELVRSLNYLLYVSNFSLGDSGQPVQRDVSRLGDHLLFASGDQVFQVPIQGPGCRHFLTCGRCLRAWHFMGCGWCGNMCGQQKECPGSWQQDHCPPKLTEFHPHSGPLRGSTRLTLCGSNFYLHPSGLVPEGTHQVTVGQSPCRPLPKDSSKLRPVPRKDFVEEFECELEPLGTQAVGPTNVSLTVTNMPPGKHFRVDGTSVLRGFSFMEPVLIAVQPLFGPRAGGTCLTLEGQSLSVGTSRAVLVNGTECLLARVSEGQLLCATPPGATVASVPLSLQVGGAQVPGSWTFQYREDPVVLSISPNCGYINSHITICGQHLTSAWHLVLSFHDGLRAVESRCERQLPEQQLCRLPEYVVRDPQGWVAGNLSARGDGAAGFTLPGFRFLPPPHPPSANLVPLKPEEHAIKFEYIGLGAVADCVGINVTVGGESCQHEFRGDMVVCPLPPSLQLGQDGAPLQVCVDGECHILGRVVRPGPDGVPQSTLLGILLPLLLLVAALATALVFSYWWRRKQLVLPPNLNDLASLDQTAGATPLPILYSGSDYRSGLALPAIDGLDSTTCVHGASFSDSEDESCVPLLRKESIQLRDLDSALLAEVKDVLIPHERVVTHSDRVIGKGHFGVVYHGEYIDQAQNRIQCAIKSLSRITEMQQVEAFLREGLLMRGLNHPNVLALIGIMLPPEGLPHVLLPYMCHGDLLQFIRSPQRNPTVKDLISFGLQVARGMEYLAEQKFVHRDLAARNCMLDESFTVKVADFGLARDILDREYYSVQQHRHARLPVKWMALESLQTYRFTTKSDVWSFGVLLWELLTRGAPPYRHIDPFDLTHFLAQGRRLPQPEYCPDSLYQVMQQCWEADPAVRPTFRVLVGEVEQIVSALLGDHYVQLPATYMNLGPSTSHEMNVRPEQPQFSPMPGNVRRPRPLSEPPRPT

As to `O=C1C[C@@H](c2ccc(O[C@@H]3O[C@H](CO)[C@@H](O)[C@H](O)[C@H]3O)cc2)Oc2cc(O)ccc21` [Liquiritin], the “total expression levels of HER2 protein” value in assay [1] and in assay [2] was “comparable suppressive effects” in each case. The HER2 phosphorylation result in assay [1] (vs vehicle) and in assay [2] (vs vehicle) was “significantly inhibited HER2 phosphorylation” throughout. For the same compound, the IC50 in assay [3] (BT-474, MTT, 48 h (Table S8), read-out: Cell growth inhibition IC50) worked out at 3.5 µM; in assay [3] (BT-474, Table S9, read-out: IC50), 3.5 ± 0.1 µM; in [11] (Homo sapiens, MCF-10A, MCF10A, MTT, 24 h), 27.9 ± 1.1 µM. The inhibition at 0.1 µM in assay [4] came to 4%; in assay [5] it was 5%; in [6], 0%; in [7], 7%; in assay [8] it was 5%; in assay [9], 7%. Moreover, the “early apoptosis (Annexin V+/PI−) cells” value in assay [10] was found to be 22.05%. Besides, in assay [10], the “late apoptosis (Annexin V+/PI+) cells” value amounted to 11.44%. The compound further had a necrosis in [10] of 3.7%. Further, the “selectivity index (SI)” value in assay [11] (IC50 MCF10A / IC50 BT-474) is given as 8; in [11] (IC50 MCF10A / IC50 SKBR3) it was 4.4.
